Laboratory results: ChEMBL document CHEMBL1139025, “Biological studies of photoinducible phenol quaternary ammonium derivatives” (2006)
The source made the active and inactive calls. No cut-off for these calls is given here.

Legend:
Format in all cases: functional
Nucleic Acid = assay: Inhibition of DNA transcription by photoactivation at 10 uM
THP-1 [1] = assay: Apoptotic activity against illuminated human THP1 cells at 0.05 mM
THP-1 [2] = assay: Apoptotic activity against human THP1 cells at 0.05 mM

C[N+](C)(C)Cc1cc(O)c(C[N+](C)(C)C)cc1O
Activity (Nucleic Acid): Active

C[N+](C)(C)Cc1cc(-c2ccc(O)c(C[N+](C)(C)C)c2)ccc1O.[I-].[I-]
Activity (THP-1 [1]): 62.03% | Activity (Nucleic Acid): Active | Activity (THP-1 [2]): 3.01%
